For two molecules, remaining binding results are on record in paper PMC4770715, “LIM kinase inhibitors disrupt mitotic microtubule organization and impair tumor cell proliferation” (Oncotarget, 2015).

Structures are written as SMILES.

What all share (test): biochemical
Holding throughout (parameters): KINOMEscan active-site competition binding, percent of control (100 = no competition)
Holding throughout (details): competition binding, percent control

In assay [1] the target is BMX (Homo sapiens, UniProt P51813).
Assay [2] addresses TEC (Homo sapiens, UniProt P42680).
Assay [3] deals with STK16 (Homo sapiens, UniProt O75716).
Assay [4] concerns the target TESK1 (Homo sapiens, UniProt Q15569).
In assay [5] the target is CAMK2B (Homo sapiens, UniProt Q13554).
Assay [6] concerns the target ABL2 (Homo sapiens, UniProt P42684).
Assay [7] deals with PRKCH (Homo sapiens, UniProt P24723).
The target in assay [8] is FLT3(D835H) (Homo sapiens, UniProt P36888, D835H).
Assay [9] addresses T1, ARK5 (Homo sapiens, UniProt O60285).
T1 construct: gene NUAK1

Assay [10] has as its target SIK2 (Homo sapiens, UniProt Q9H0K1).
The target in assay [11] is LTK (Homo sapiens, UniProt P29376).
Assay [12] addresses T2, MRCKB (Homo sapiens, UniProt Q9Y5S2).
T2 construct: gene CDC42BPB

Assay [13] concerns the target T3, ABL1(F317I)-phosphorylated (Homo sapiens, UniProt P00519, F317I).
T3 construct: phosphorylated

For assay [14], the target named is PIK3CA(Q546K) (Homo sapiens, UniProt P42336, Q546K).
Assay [15] deals with PIM3 (Homo sapiens, UniProt Q86V86).
Assay [16] addresses T4, IKK-epsilon (Homo sapiens, UniProt Q14164).
T4 construct: gene IKBKE

The target in assay [17] is CDK5 (Homo sapiens, UniProt Q00535).
In assay [18] the target is PAK6 (Homo sapiens, UniProt Q9NQU5).
Assay [19] concerns the target HIPK3 (Homo sapiens, UniProt Q9H422).
In assay [20] the target is CDKL1 (Homo sapiens, UniProt Q00532).
The target in assay [21] is TRPM6 (Homo sapiens, UniProt Q9BX84).
Assay [22] concerns the target PAK3 (Homo sapiens, UniProt O75914).
Assay [23] concerns the target T5, ABL1-phosphorylated (Homo sapiens, UniProt P00519).
T5 construct: phosphorylated

T4 sequence (Q14164 whole entry): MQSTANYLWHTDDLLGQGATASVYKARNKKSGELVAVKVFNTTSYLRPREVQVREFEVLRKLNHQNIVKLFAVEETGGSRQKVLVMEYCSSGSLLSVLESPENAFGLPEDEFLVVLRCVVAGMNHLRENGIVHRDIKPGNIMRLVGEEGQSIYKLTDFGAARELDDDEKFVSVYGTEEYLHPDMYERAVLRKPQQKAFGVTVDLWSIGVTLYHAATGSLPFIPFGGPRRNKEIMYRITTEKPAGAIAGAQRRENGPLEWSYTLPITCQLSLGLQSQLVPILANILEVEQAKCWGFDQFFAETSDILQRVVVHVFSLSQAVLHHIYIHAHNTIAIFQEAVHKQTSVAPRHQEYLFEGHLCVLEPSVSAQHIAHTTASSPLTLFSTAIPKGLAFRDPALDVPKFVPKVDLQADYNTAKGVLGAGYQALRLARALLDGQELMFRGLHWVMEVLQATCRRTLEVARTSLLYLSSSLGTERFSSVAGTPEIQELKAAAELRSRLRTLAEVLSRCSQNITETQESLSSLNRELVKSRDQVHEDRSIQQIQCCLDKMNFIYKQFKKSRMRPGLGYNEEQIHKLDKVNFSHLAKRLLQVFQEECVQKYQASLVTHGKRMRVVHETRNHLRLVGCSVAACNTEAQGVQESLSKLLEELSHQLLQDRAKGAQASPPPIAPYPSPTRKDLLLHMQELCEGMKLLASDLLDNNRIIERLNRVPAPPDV
T1 sequence (O60285 whole entry): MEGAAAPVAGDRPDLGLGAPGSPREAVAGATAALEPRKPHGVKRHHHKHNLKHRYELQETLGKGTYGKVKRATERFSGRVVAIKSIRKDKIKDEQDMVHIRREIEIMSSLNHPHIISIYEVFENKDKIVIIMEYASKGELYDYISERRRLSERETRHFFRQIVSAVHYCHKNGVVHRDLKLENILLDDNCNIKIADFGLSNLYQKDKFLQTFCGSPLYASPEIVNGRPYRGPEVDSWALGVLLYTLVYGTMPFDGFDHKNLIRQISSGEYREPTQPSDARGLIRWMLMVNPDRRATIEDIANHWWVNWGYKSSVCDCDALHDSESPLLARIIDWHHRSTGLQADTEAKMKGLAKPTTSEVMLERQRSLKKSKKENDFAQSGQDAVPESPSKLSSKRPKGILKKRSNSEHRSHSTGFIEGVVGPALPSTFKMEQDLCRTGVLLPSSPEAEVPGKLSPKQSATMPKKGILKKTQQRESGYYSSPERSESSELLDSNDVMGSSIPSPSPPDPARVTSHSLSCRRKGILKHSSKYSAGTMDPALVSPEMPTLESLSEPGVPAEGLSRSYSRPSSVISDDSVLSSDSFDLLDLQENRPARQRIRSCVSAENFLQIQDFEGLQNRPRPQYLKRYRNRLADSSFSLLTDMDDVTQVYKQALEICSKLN
CDKL1, sequence (Q00532 whole entry): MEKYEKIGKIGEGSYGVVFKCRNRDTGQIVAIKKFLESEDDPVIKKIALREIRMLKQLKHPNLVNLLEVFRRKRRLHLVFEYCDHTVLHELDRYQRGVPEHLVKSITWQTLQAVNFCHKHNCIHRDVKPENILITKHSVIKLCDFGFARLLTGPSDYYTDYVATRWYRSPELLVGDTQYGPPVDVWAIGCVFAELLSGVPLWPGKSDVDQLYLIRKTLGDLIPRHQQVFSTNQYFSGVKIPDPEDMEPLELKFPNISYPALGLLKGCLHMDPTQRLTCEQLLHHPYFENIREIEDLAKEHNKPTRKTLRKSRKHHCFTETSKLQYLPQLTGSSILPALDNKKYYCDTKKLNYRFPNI
PRKCH, sequence (P24723 whole entry): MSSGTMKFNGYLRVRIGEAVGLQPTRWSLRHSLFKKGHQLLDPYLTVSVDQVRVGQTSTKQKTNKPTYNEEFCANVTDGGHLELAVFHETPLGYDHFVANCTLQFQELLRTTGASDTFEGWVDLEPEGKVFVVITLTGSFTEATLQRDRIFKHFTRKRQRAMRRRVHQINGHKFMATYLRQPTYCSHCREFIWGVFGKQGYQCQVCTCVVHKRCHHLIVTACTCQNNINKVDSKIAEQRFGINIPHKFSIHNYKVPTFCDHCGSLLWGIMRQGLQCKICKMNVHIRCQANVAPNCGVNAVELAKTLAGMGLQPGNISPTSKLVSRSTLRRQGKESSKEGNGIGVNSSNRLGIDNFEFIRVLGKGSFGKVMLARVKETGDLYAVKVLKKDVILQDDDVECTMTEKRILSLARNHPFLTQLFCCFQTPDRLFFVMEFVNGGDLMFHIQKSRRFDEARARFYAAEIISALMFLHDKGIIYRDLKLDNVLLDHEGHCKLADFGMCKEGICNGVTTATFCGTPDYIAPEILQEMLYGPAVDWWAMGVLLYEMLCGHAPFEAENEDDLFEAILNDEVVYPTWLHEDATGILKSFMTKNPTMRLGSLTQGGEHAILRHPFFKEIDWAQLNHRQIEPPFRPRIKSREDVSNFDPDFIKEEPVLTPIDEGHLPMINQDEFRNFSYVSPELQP
PAK6, sequence (Q9NQU5 whole entry): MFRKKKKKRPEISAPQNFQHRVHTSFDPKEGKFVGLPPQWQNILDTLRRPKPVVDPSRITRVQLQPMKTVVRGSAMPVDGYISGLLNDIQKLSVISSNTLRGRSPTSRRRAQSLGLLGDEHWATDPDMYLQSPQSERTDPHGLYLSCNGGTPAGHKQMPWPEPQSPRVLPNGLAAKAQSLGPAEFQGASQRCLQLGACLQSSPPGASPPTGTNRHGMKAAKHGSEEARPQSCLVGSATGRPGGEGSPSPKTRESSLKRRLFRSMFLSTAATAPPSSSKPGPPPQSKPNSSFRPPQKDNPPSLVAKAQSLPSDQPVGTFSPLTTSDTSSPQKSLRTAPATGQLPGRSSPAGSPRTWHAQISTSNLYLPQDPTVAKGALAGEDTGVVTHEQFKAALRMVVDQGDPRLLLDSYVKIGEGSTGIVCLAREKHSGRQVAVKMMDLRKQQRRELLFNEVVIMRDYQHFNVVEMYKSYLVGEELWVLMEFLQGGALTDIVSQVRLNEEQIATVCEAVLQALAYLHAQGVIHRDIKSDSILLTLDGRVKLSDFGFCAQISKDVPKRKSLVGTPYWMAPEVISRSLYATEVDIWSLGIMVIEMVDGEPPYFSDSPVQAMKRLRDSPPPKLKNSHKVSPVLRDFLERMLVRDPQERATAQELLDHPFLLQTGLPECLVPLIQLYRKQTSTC
PAK3, sequence (O75914 whole entry): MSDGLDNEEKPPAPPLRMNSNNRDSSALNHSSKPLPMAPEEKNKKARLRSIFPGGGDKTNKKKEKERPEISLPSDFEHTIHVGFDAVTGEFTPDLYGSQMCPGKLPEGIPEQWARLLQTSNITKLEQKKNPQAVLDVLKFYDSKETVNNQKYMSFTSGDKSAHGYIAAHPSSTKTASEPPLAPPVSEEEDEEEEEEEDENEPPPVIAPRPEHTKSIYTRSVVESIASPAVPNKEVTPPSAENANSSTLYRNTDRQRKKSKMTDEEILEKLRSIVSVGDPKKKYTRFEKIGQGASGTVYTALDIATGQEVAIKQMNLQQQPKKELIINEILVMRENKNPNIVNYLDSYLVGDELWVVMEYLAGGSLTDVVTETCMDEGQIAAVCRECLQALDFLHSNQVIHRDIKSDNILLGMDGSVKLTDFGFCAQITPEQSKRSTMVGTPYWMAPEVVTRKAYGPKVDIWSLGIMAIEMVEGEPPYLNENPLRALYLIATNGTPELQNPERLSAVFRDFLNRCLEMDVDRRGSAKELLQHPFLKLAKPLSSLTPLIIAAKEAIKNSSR
T5 sequence (P00519 whole entry): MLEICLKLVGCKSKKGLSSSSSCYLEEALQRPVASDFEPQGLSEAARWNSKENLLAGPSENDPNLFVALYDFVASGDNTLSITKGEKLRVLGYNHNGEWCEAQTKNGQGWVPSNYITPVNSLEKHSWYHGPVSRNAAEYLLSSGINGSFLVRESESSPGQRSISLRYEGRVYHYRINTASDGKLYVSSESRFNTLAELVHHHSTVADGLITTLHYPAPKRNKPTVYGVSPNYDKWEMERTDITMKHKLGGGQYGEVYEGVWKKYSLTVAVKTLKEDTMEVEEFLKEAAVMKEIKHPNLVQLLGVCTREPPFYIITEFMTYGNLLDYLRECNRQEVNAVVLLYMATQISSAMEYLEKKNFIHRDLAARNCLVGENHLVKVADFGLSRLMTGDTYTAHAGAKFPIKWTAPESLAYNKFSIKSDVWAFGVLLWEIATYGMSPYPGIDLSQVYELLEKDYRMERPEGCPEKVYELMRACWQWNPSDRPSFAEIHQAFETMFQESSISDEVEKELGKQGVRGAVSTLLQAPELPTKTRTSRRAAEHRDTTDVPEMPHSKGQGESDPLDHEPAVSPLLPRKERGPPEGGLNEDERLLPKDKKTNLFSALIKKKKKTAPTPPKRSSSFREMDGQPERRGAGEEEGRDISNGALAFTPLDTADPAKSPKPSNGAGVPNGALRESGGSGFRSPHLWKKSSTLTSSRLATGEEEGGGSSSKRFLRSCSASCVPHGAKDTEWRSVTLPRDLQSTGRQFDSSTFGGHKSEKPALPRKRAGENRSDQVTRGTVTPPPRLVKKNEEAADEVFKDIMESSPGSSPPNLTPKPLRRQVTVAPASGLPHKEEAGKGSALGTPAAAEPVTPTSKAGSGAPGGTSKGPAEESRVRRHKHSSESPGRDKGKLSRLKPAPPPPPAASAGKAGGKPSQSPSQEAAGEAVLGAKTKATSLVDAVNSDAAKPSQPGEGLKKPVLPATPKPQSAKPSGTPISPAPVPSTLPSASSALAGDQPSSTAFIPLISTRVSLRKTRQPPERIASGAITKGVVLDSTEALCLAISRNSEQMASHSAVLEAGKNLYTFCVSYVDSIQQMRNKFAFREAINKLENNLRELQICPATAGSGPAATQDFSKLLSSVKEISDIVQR
T3 sequence (P00519 whole entry F317I): as the sequence (P00519 whole entry) above, with F317I counted along it

As for `COc1ccc(-c2cnccc2-c2cnc(NC(=O)C(C)C)s2)c(C(F)(F)F)c1` [CRT0105446, N-{5-[3-(4-Methoxy-2-trifluoromethyl-phenyl)-pyridin-4-yl]-hiazol-2-yl}-isobutyramide], the remaining binding at 10 µM in [1] is 100%; in assay [2] it was 100%; in assay [3], 5%; in assay [4] it was 96%; in assay [5], 92%; in [6], 100%. In addition, the remaining binding at 10 µM in assay [7] was found to be 100%; in assay [8], 15%; in [9] it was 59%; in assay [10], 78%; in [11] it was 100%; in [12] it was 93%. Besides, the remaining binding at 10 µM in [13] was 76%; in assay [14], 100%; in assay [15], 95%; in [16] it was 85%; in assay [17], 60%; in assay [18], 93%. Further, the remaining binding at 10 µM in assay [19] worked out at 98%; in assay [20] it was 80%; in assay [21], 94%; in assay [22], 4.6%; in assay [23], 77%.

Consider `Cc1ccc(-c2cnccc2-c2cnc(Nc3ccc(O)cc3)s2)c(Cl)c1` [CRT0105950, 4-{5-[3-(2-Chloro-4-methyl-phenyl)-pyridin-4-yl]-thiazol-2-ylamino}-phenol], for which the remaining binding at 10 µM in assay [1] was 81%; in [2], 100%; in assay [3], 8.7%; in assay [4], 20%; in [5] it was 42%; in assay [6] it was 58%. In addition, the remaining binding at 10 µM amounted to 49% in assay [7]; 0.95% in assay [8]; 49% in assay [9]; 7.1% in [10]; 100% in assay [11]; 78% in [12]. Further, the remaining binding at 10 µM in assay [13] was 87%; in assay [14], 100%; in assay [15] it was 72%; in [16], 41%; in assay [17], 12%; in [18], 38%. Further, the remaining binding at 10 µM was found to be 69% in assay [19]; 77% in assay [20]; 93% in assay [21]; 4.1% in assay [22]; 70% in assay [23].
